Key:
Assay type in all cases: functional
Mus musculus [1] = assay: Spermatogenic index (percent change from vehicle control) was calculated in Adult Male Swiss Mice at 6 (umol/kg) dose
Mus musculus [2] = assay: Spermatogenic index (percent change from vehicle control) was calculated in Adult Male Swiss Mice at 20 (umol/kg) dose
Mus musculus [3] = assay: Spermatogenic index (percent change from vehicle control) was calculated in Adult Male Swiss Mice at 2 (umol/kg) dose
Mus musculus [4] = assay: Spermatogenic index (percent change from vehicle control) was calculated in Adult Male Swiss Mice at 25 (umol/kg) dose
Mus musculus [5] = assay: Spermatogenic index (percent change from vehicle control) was calculated in Adult Male Swiss Mice at 7 (umol/kg) dose
Mus musculus [6] = assay: Spermatogenic index (percent change from vehicle control) was calculated in Adult Male Swiss Mice at 8 (umol/kg) dose
Mus musculus [7] = assay: Spermatogenic index (percent change from vehicle control) was calculated in Adult Male Swiss Mice at 3 (umol/kg) dose
Mus musculus [8] = assay: Spermatogenic index (percent change from vehicle control) was calculated in Adult Male Swiss Mice at 75 (umol/kg) dose
Mus musculus [9] = assay: Spermatogenic index (percent change from vehicle control) was calculated in Adult Male Swiss Mice at 21 (umol/kg) dose
Mus musculus [10] = assay: Spermatogenic index (percent change from vehicle control) was calculated in Adult Male Swiss Mice at 62 (umol/kg) dose
Mus musculus [11] = assay: Spermatogenic index (percent change from vehicle control) was calculated in Adult Male Swiss Mice at 26 (umol/kg) dose
Mus musculus [12] = assay: Spermatogenic index (percent change from vehicle control) was calculated in Adult Male Swiss Mice 79 (umol/kg) dose
Mus musculus [13] = assay: Spermatogenic index (percent change from vehicle control) was calculated in Adult Male Swiss Mice at 19 (umol/kg) dose
Mus musculus [14] = assay: Spermatogenic index (percent change from vehicle control) was calculated in Adult Male Swiss Mice at 0.6 (umol/kg) dose

In the case of CCN1CC[C@H]2[C@H](c3ccc(C(=O)O)cc3)c3cc(C)c(I)cc3[C@H]2C1, the SI (Mus musculus [1]) is reported as -66%, the SI (Mus musculus [2]) is reported as -76% and the SI (Mus musculus [3]) is reported as -67%.

In the case of CCN1CC[C@H]2[C@H](c3ccc(C(=O)O)cc3)c3cc(C)c(Cl)cc3[C@H]2C1, the SI (Mus musculus [4]) is reported as -72%, the SI (Mus musculus [3]) is reported as -55% and the SI (Mus musculus [5]) is reported as -66%.

For CCN1CC[C@H]2[C@H](c3ccc(C(=O)OC)cc3)c3cc(C)ccc3[C@H]2C1, the SI (Mus musculus [6]) was -2%, the SI (Mus musculus [4]) was -33% and the SI (Mus musculus [7]) was 3%. It also gave an SI (Mus musculus [8]) of -64%.

With CCN1CC[C@H]2[C@H](c3ccc(C(=O)O)cc3)c3cc(C)c(Br)cc3[C@H]2C1 the SI (Mus musculus [1]) was -69%, the SI (Mus musculus [9]) was -71% and the SI (Mus musculus [10]) was -72%.

Compound CCN1CC[C@H]2[C@H](c3ccc(C(=O)O)cc3)c3cc(C)ccc3[C@H]2C1 has an SI (Mus musculus [11]) of -24% and an SI (Mus musculus [12]) of -52%.

CCN1CC[C@H]2[C@H](c3ccc(C(=O)OC)cc3)c3cc(C)c(I)cc3[C@H]2C1 (stereo in doubt; 2b) showed an SI (Mus musculus [1]) of -69%, an SI (Mus musculus [2]) of -74% and an SI (Mus musculus [3]) of -57%.

In the case of CCN1CC[C@H]2[C@H](c3ccc(C(=O)OC)cc3)c3cc(C)c(I)cc3[C@H]2C1 (stereo in doubt; (l)-2b), the SI (Mus musculus [1]) is reported as -71%, the SI (Mus musculus [13]) is reported as -72% and the SI (Mus musculus [3]) is reported as -66%. The SI (Mus musculus [14]) was -34%.

Reference: ChEMBL document CHEMBL1130324, “Exceptionally potent antispermatogenic compounds from 8-halogenation of (4aRS,5SR,9bRS)-hexahydroindeno-[1,2-c]pyridines” (1997)
